Measured values published in US20220009976A1, “Peptide Possessing Mesenchymal-Stem-Cell Mobilizing Activity” (StemRIM Inc., priority 2018, published 2022).

Legend:
mesenchymal stem cells = assay: Colony assay of peripheral blood collected after peptide administration (mobilization of mesenchymal stem cells into peripheral blood); assay type: in vivo, C57BL/6J mice; conditions: 4 mg/kg tail vein; blood collected 14 hours after administration; 10 days culture; colonies of 50 or more cells; vs physiological saline
Method: C57BL/6J mice (8 weeks old, male, body weight 25 g) were prepared and divided into a group administered with the artificial sequence peptide […] and a control group. The peptide was administered by injecting into the tail vein, a solution of peptide 1r10 adjusted to a concentration of […] using physiological saline as a solvent in an amount of 100 μL/animal (4 mg/kg dose of peptide). For the control group, physiological saline was injected into the tail vein in an amount of 100 μL/animal. […]
The supernatant (sample containing peripheral blood-derived cells) obtained by the above procedure was seeded on collagen I-coated 6-well plates (Corning, Cat No. 356400), and cultured for 10 days under the conditions of 37° C., 5% CO2 and 5% O2, using a medium containing Expansion Medium prepared using the MesenCult Expansion Kit (STEMCELL Technologies, Cat No. ST-05513) according to the manual of the kit, 1% L-glutamine (Nacalai Tesque Inc.), 10 μM ROCK inhibitor (Y27632, Tocris Bioscience) and 1% penicillin/streptomycin (Nacalai Tesque Inc.) (all numerical values are final concentrations). […] On the 10th day of culture, cells on the plates were stained with a Differential Quik Stain Kit (Sysmex Corporation, Cat No. 16920), and the number of colonies containing 50 or more cells was counted. […]

[1] = tested on: atopic dermatitis model mice; assay: Efficacy in MC903-induced atopic dermatitis (AD) model mice; assay type: in vivo, C57BL/6 mice
Source text: MC903 (generic name: Calcipotriol) was used to induce atopic dermatitis (hereinafter, also referred to as “AD”) in mice. In addition, the peptide 1r10 (TFA salt) described in Example 1 was used as the test substance.
C57BL/6 mice (C57BL/6JJcl, 7-8 weeks old, male, microbial grade SPF) were obtained from Japan Claire Co., Ltd., acclimated in the animal breeding room for 5 days or more, and then subjected to the following experiments. An ethanol-adjusted MC903 solution was applied to the skin of the auricle of the mice at a dose of 2.25 nmol MC903/ear/once/day five times a week for 2 weeks (ten times in total) to induce atopic dermatitis (AD). This MC903-induced AD model is a model in which AD-like pathology can be reproduced in a short period of time (1-2 weeks) by artificially inducing the secretion of TSLP from epithelial cells, which is actually seen in AD patients, thereby eliciting a series of type 2 immune response cascades (Li M et al., Proc Natl Acad Sci USA. 2006; 103:11736-41).
They were then divided into the control group and the peptide administration group (n=7 in each group), while the groups were equalized based on the auricle thickness in consideration of the difference in the severity of inflammation between individuals. For peptide administration, the solution of peptide 1r10 adjusted to 0.3 mg/mL with physiological saline was injected into the tail vein at a volume of 5 mL/kg (peptide dose of 1.5 mg/kg) twice in total, once on the grouping day (Day 15) and once during the following 4 days (Day 16 to Day 19). For the control group a solution of bovine serum albumin (BSA) adjusted to 0.3 mg/mL with physiological saline was injected into the tail vein at a volume of 5 mL/kg (BSA dose of 1.5 mg/kg) twice in total, once on the grouping day (Day 15) and once during the following 4 days (Day 16 to Day 19).
During the peptide administration period (Day 15 to Day 19), ear swellings were measured daily to determine edema. Scaling, which is the main symptom of AD, was determined by photography (three times a week) using a digital camera (E-M1 II; Olympus) from a fixed base at a height of 13-14 cm from the auricle.
On the 4th day (Day 19) after the start of peptide administration, mice were placed under the influence of isoflurane anesthesia and euthanized with cervical spine dislocation. The skin at auricular inflammation site and its surroundings was quickly excised and collected while on ice to prevent protein denaturation of the sample. After removing excess hair and skin with tweezers, the collected auricular skin was immersed in 10% formalin and fixed at 4° C. overnight while shaking on ice using a shaker. After fixation, the skin was thoroughly washed with phosphate buffered saline (PBS) and trimmed, and then a paraffin block was made using an automatic embedding device (Excelsior ES; Thermo Scientific) with attention to the tissue polarity in the dorsoventral axis/left-right axis specific to the skin). Then, it was sliced (5 μm thick) with a rotary microtome (HM 325; Thermo Scientific), fixed on a slide glass, and subjected to various staining. As pathological analysis, skin thickness and infiltration of immune cells were evaluated by histochemical staining and fluorescent immunostaining, respectively.
To quantitatively evaluate the healing condition of the site of inflammation, hematoxylin-eosin (HE) staining of the paraffin thin sections (5 μm thick) of skin tissue generated as described above was performed to measure the dermal thickness. Specifically, three sections were prepared for each individual, and each section was photographed with a microscope (Keyence BZ-X710) at one site each of the center of inflammation, head side, and tail side (that is, a total of 9 sites were photographed per individual). […]

peptide 1r10: artificial sequence peptide consisting of the amino acid sequence of SEQ ID NO: 1, chemically synthesized (IMWLCQYFFQCHKCAVKKKTWKEKKDRRHP)
number of colonies obtained on the plate by culturing the peripheral blood-derived cells (mesenchymal stem cells): larger | dermis thickness ([1]; 1.5 mg/kg tail vein twice, 4th day (Day 19) after start of administration, HE staining, vs control group): statistically significant decrease | scaling in the auricle ([1]; 1.5 mg/kg tail vein twice, 4 days after start of peptide administration, vs control group (BSA)): reduction of scaling | auricular thickness (edema) ([1]; 1.5 mg/kg tail vein twice, Day 15 to Day 19, vs control group (BSA)): statistically significant reduction | number of CD45-positive cells in auricular skin sections ([1]; 1.5 mg/kg tail vein twice, Day 19, per high-power field (400×), vs control group): statistically significant decrease | changes in mouse body weight during the period of the study ([1]; Day 15 to Day 19, between the groups, p>0.05, repeated one-way ANOVA): not significantly different | dermis thickness ([1]; dose of 0.5 mg/kg, vs control group, data not shown): statistically significant decrease
